Among the data in ChEMBL document CHEMBL1153535, “Nitazoxanide kills replicating and nonreplicating Mycobacterium tuberculosis and evades resistance” (J Med Chem, 2009) are MIC values, retold here.

Converted amounts (≈) assume the structure as drawn.

The test system of assay [1] is Mycobacterium tuberculosis. Briefly: Antimycobacterial activity against Mycobacterium bovis var. bovis BCG in 7H9 liquid medium after 7 days. The following applies: variant bovis BCG, 168 h. Format: functional.
Assay [2] deals with Mycobacterium tuberculosis. Briefly: Antimycobacterial activity against Mycobacterium bovis var. bovis BCG in 7H11 solid medium after 7 days. It is filed as functional. Particulars: variant bovis BCG, 168 h.

Usually MIC stands for the lowest concentration found to suppress growth. A lower MIC goes with a more susceptible organism. Consider `CC(=O)Oc1ccccc1C(=O)Nc1ncc([N+](=O)[O-])s1` [NITAZOXANIDE], for which the MIC in assay [1] and in assay [2] was 16 mg/L (≈ 52.1 µM) in each case.
